Our source for the Ki values is patent US7045320B2, “Methods for producing L-amino acids” (priority 2001, dated 2006).

Format in all cases: biochemical
Assay [1] concerns the target T1, TrpE6 mutant anthranilate synthase (Escherichia coli, UniProt P00895, K50E/S40F).
T1 construct: endogenous in cells; host or cells: 5-methyltryptophan-resistant mutant of E. coli K12 YMC9 (gene later cloned as pE6)
The assay can be described thus: Ki value of anthranilate synthase (AS) to L-tryptophan, TrpE6. The procedure:
(§1) Following the culture for 24–48 hours at 37° C., 5-methyltryptophan resistant clones were seeded on the aforementioned agar medium. In order to examine properties of the obtained mutant strain, Ki value of AS to L-tryptophan was measured (Bauerle R. et al., Methods in Enzymology, 142, pp.366–386, 1987). As a result, the mutant strains could be classified into two classes. The class 1 mutant strains had feedback resistant anthranilate synthase. […] The AS genes of these mutant strains were cloned and their nucleotide sequences were determined. Chromosomal DNA of each mutant strain was isolated and digested with restriction enzymes NheI and ClaI to isolate a fragment of about 5 kb, and this fragment was ligated with the NheI/ClaI fragment (4158 bp) of pBR322.
(§2) E. coli KB 862 (trpE) (DSM7196) was transformed with the ligation reaction product. A clone that could grow on a minimal medium not containing L-tryptophan was selected. All the plasmids complementing the trpE mutation contained the NheI/ClaI fragment of 5 kb. Further, this 5 kb NheI/ClaI fragment contained trpE, trpD, a sequence about 0.8 kb upstream from trpE, and a sequence about 1 kb downstream from trpD. Differences in amino acid sequences of mutant AS encoded by plasmids (pE0, pE5, pE6, pE8) contained in the mutant strains and their Ki values are shown in Table 1.

The target of assay [2] is T2, TrpE5 mutant anthranilate synthase (Escherichia coli, UniProt P00895, P21S).
T2 construct: endogenous in cells; host or cells: 5-methyltryptophan-resistant mutant of E. coli K12 YMC9 (gene later cloned as pE5)
T2 sequence (P00904 2-531): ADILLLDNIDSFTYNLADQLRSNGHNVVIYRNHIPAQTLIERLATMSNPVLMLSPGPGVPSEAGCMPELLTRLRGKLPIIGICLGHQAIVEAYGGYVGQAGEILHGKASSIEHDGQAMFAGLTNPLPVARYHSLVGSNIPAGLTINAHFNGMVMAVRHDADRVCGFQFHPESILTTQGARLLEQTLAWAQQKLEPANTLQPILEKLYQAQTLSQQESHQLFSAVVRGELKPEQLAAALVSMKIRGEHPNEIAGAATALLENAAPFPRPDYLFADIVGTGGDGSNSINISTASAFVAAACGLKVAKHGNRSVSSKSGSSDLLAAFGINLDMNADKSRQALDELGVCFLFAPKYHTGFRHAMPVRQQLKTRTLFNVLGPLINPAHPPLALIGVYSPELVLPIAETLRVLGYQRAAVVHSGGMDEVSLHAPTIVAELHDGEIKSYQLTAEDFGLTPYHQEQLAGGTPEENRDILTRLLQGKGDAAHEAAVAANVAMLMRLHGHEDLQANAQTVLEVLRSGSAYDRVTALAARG
T2 sequence (P00895 whole entry P21S): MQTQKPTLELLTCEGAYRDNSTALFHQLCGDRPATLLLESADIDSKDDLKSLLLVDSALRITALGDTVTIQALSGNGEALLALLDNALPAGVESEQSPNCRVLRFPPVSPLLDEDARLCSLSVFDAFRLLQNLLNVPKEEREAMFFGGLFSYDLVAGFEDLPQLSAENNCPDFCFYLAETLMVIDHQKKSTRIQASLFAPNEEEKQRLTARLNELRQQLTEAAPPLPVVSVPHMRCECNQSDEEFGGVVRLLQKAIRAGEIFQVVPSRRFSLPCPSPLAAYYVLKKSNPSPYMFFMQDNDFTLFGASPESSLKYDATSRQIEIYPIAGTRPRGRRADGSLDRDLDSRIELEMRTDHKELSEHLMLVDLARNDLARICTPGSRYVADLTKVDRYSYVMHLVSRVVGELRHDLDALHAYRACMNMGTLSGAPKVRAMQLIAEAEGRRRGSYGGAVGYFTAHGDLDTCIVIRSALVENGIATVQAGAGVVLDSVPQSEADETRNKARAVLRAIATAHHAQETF
Put plainly: Ki value of anthranilate synthase (AS) to L-tryptophan, TrpE5. The procedure:
as §1, §2

For assay [3], the target named is T3, TrpE0 mutant anthranilate synthase (Escherichia coli, UniProt P00895, K50E).
T3 construct: endogenous in cells; host or cells: 5-methyltryptophan-resistant mutant of E. coli K12 YMC9 (gene later cloned as pE0)
T3 sequence (P00904 2-531): as the sequence (P00904 2-531) above
T3 sequence (P00895 whole entry K50E): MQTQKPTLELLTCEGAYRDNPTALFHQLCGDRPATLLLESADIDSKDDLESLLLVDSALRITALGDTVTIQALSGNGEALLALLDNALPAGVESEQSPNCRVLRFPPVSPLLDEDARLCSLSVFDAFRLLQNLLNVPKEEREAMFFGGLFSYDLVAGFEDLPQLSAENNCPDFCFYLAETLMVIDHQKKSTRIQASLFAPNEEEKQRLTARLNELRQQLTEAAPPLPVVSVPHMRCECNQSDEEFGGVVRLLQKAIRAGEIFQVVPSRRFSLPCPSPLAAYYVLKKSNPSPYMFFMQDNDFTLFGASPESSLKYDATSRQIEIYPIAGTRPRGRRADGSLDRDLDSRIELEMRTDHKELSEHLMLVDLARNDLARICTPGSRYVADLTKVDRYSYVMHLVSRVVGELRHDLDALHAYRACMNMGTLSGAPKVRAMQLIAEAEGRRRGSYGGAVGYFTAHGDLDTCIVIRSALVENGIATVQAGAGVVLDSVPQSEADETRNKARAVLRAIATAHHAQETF
Put plainly: Ki value of anthranilate synthase (AS) to L-tryptophan, TrpE0. The procedure:
as §1, §2

The target in assay [4] is T4, Wild type trpE anthranilate synthase (Escherichia coli, UniProt P00895).
T4 construct: endogenous in cells
T4 sequence (P00904 2-531): as the sequence (P00904 2-531) above
T4 sequence (P00895 whole entry): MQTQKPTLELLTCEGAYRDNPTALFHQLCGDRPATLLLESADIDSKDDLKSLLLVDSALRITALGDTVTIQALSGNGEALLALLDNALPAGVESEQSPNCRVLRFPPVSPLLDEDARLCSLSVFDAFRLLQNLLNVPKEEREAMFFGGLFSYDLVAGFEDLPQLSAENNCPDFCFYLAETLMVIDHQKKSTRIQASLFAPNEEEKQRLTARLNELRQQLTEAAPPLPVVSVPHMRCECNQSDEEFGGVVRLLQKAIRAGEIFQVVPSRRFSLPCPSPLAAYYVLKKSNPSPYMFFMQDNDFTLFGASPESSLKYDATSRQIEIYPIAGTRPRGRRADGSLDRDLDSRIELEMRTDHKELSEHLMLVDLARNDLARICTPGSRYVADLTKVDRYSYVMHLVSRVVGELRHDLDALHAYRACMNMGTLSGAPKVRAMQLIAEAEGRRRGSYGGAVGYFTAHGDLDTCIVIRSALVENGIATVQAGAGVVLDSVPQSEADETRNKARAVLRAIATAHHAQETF
The assay can be described thus: Ki value of anthranilate synthase (AS) to L-tryptophan, wild type. The procedure: as §1, §2

Bounds are passed on as bounds.

T1 sequence (P00895 whole entry S40F/K50E): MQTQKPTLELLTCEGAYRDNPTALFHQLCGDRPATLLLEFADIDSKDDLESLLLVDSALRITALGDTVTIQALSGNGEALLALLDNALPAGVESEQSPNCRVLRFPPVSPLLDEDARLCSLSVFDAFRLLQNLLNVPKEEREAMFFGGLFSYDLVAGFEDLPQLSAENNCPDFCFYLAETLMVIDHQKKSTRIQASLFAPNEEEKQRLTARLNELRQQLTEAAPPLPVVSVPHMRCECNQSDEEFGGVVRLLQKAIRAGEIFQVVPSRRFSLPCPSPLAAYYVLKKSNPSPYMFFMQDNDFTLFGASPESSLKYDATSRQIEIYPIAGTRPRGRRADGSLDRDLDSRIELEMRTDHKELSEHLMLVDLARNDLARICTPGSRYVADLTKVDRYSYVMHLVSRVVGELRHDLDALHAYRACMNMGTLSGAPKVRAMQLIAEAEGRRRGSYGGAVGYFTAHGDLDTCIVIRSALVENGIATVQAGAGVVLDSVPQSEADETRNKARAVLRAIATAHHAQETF
T1 sequence (P00904 2-531, further chain): as the sequence (P00904 2-531) above

What is called Ki is the dissociation constant of the complex between target and ligand, obtained from inhibition or displacement. Low readings indicate higher affinity, high ones lower affinity. As for `N[C@@H](Cc1c[nH]c2ccccc12)C(=O)O` [L-tryptophan], the Ki is above 15000 µM in assay [1], 3000 µM in assay [2], 100 µM in assay [3] and 10 µM in assay [4].
